Results as given in PubChem BioAssay AID2060506 (Molecular Pharmacology Branch, DTP, NCI, 2025).

Tested on: 598228-144-R-J1-PDC complex spheroid viability
Test: Anticancer human tumor 598228-144-R-J1-PDC patient-derived serous endometrial adenocarcinoma cell line growth inhibition [GQUAD]
Details: for IC50: curve of first compound; for viability, T/C: stronger effect = lower value
Summary of the method: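 Viability of tumor cells grown as complex spheroids with endothelial and stromal cells, exposed to drug combinations. Top concentration at or near clinical Cmax (else 10 microM), diluted in half-log increments.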

[1] = second compound 0.0316 µM, first compound 0.0316 µM
[2] = second compound 0.0316 µM, first compound 0.1 µM
[3] = second compound 0.0316 µM, first compound 0.316 µM
[4] = second compound 0.0316 µM, first compound 1 µM
[5] = second compound 0.0316 µM, first compound 3.16 µM
[6] = second compound 0.0316 µM, first compound 10 µM
[7] = second compound 0.1 µM, first compound 0.0316 µM
[8] = second compound 0.1 µM, first compound 0.1 µM
[9] = second compound 0.1 µM, first compound 0.316 µM
[10] = second compound 0.1 µM, first compound 1 µM
[11] = second compound 0.1 µM, first compound 3.16 µM
[12] = second compound 0.1 µM, first compound 10 µM
[13] = second compound 0.316 µM, first compound 0.0316 µM
[14] = second compound 0.316 µM, first compound 0.1 µM
[15] = second compound 0.316 µM, first compound 0.316 µM
[16] = second compound 0.316 µM, first compound 1 µM
[17] = second compound 0.316 µM, first compound 3.16 µM
[18] = second compound 0.316 µM, first compound 10 µM
[19] = second compound 1 µM, first compound 0.0316 µM
[20] = second compound 1 µM, first compound 0.1 µM
[21] = second compound 1 µM, first compound 0.316 µM
[22] = second compound 1 µM, first compound 1 µM
[23] = second compound 1 µM, first compound 3.16 µM
[24] = second compound 1 µM, first compound 10 µM
[25] = second compound 3.16 µM, first compound 0.0316 µM
[26] = second compound 3.16 µM, first compound 0.1 µM
[27] = second compound 3.16 µM, first compound 0.316 µM
[28] = second compound 3.16 µM, first compound 1 µM
[29] = second compound 3.16 µM, first compound 3.16 µM
[30] = second compound 3.16 µM, first compound 10 µM
[31] = second compound 10 µM, first compound 0.0316 µM
[32] = second compound 10 µM, first compound 0.1 µM
[33] = second compound 10 µM, first compound 0.316 µM
[34] = second compound 10 µM, first compound 1 µM
[35] = second compound 10 µM, first compound 3.16 µM
[36] = second compound 10 µM, first compound 10 µM
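Also: spheroids exposed to the agents for one week before reading.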
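For viability, T/C in this document: percent of vehicle DMSO control viability so 100% = untreated growth.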

COc1ncnc(C2CC2)c1-c1ncc2cnn(Cc3ccc(-c4nc(C(F)(F)F)cn4C(C)C)cc3)c2n1 + CN(C)c1ccc(Nc2c3ccc(NC(=O)CCN4CCCC4)cc3nc3cc(NC(=O)CCN4CCCC4)ccc23)cc1
IC50 (second compound 0.0316 µM): > 10 µM
IC50 (second compound 0.1 µM): > 10 µM
IC50 (second compound 0.316 µM): > 10 µM
IC50 (second compound 1 µM): > 10 µM
IC50 (second compound 3.16 µM): > 10 µM
IC50 (second compound 10 µM): > 10 µM
viability, T/C [1]: 91.3%
viability, T/C [2]: 111%
viability, T/C [3]: 95.9%
viability, T/C [4]: 92.2%
viability, T/C [5]: 111%
viability, T/C [6]: 89.9%
viability, T/C [7]: 105%
viability, T/C [8]: 97.9%
viability, T/C [9]: 101%
viability, T/C [10]: 85.5%
viability, T/C [11]: 102%
viability, T/C [12]: 110%
viability, T/C [13]: 112%
viability, T/C [14]: 115%
viability, T/C [15]: 99%
viability, T/C [16]: 88.7%
viability, T/C [17]: 120%
viability, T/C [18]: 110%
viability, T/C [19]: 112%
viability, T/C [20]: 90.6%
viability, T/C [21]: 102%
viability, T/C [22]: 75.1%
viability, T/C [23]: 95.2%
viability, T/C [24]: 90.5%
viability, T/C [25]: 89.8%
viability, T/C [26]: 108%
viability, T/C [27]: 94.3%
viability, T/C [28]: 105%
viability, T/C [29]: 90.9%
viability, T/C [30]: 91.5%
viability, T/C [31]: 84%
viability, T/C [32]: 67.8%
viability, T/C [33]: 72.2%
viability, T/C [34]: 77.1%
viability, T/C [35]: 71.1%
viability, T/C [36]: 51.5%

CC(C)n1c(=O)n(C)c2cnc3cc(F)c(-c4ccc(OCCCN5CCCCC5)nc4)cc3c21 + Cc1[nH]c2ccc(F)cc2c1-c1nc2c3cccnc3c3ncccc3c2[nH]1
IC50 (second compound 0.0316 µM): > 10 µM
IC50 (second compound 0.1 µM): > 10 µM
IC50 (second compound 0.316 µM): > 10 µM
IC50 (second compound 1 µM): 5.12 µM
IC50 (second compound 3.16 µM): < 0.0316 µM
IC50 (second compound 10 µM): > 10 µM
viability, T/C [1]: 116%
viability, T/C [2]: 100%
viability, T/C [3]: 117%
viability, T/C [4]: 121%
viability, T/C [5]: 106%
viability, T/C [6]: 65%
viability, T/C [7]: 107%
viability, T/C [8]: 108%
viability, T/C [9]: 95.4%
viability, T/C [10]: 94.4%
viability, T/C [11]: 91.7%
viability, T/C [12]: 77%
viability, T/C [13]: 90.8%
viability, T/C [14]: 97.2%
viability, T/C [15]: 93.9%
viability, T/C [16]: 87.4%
viability, T/C [17]: 101%
viability, T/C [18]: 62.2%
viability, T/C [19]: 72.6%
viability, T/C [20]: 60.6%
viability, T/C [21]: 59.2%
viability, T/C [22]: 60.6%
viability, T/C [23]: 59.2%
viability, T/C [24]: 39.5%
viability, T/C [25]: 45.2%
viability, T/C [26]: 47.4%
viability, T/C [27]: 40.8%
viability, T/C [28]: 39.3%
viability, T/C [29]: 29.5%
viability, T/C [30]: 27.3%
viability, T/C [31]: 66%
viability, T/C [32]: 57.9%
viability, T/C [33]: 52.9%
viability, T/C [34]: 54.1%
viability, T/C [35]: 55.4%
viability, T/C [36]: 46.5%

CC1COCCN1c1cc(-c2ccnn2C)c2ccnc(-c3ccn[nH]3)c2n1 (stereo unspecified) + Cc1[nH]c2ccc(F)cc2c1-c1nc2c3cccnc3c3ncccc3c2[nH]1
IC50 (second compound 0.0316 µM): 0.209 µM
IC50 (second compound 0.1 µM): 0.221 µM
IC50 (second compound 0.316 µM): 0.0782 µM
IC50 (second compound 1 µM): < 0.0316 µM
IC50 (second compound 3.16 µM): < 0.0316 µM
IC50 (second compound 10 µM): < 0.0316 µM
viability, T/C [1]: 92.4%
viability, T/C [2]: 63.8%
viability, T/C [3]: 41.3%
viability, T/C [4]: 43.3%
viability, T/C [5]: 37.2%
viability, T/C [6]: 36%
viability, T/C [7]: 71.1%
viability, T/C [8]: 55.7%
viability, T/C [9]: 41.6%
viability, T/C [10]: 50.2%
viability, T/C [11]: 52.6%
viability, T/C [12]: 44%
viability, T/C [13]: 59%
viability, T/C [14]: 47.7%
viability, T/C [15]: 45.7%
viability, T/C [16]: 47.2%
viability, T/C [17]: 43.9%
viability, T/C [18]: 49.1%
viability, T/C [19]: 44.3%
viability, T/C [20]: 41.5%
viability, T/C [21]: 37.6%
viability, T/C [22]: 41.8%
viability, T/C [23]: 45.1%
viability, T/C [24]: 36.5%
viability, T/C [25]: 36.9%
viability, T/C [26]: 36.9%
viability, T/C [27]: 39.7%
viability, T/C [28]: 30.7%
viability, T/C [29]: 24.9%
viability, T/C [30]: 22.4%
viability, T/C [31]: 47%
viability, T/C [32]: 42.7%
viability, T/C [33]: 41.4%
viability, T/C [34]: 36.8%
viability, T/C [35]: 44.1%
viability, T/C [36]: 36.5%
